Consider seven compounds from patent publication US4960900A, “Oxyimino derivatives of thiazole, method of preparation and use in therapy” (priority 1987, dated 1990).

For series [1] the following is noted: prior art documents; cited from earlier work.
For series [2] the following is noted: prior art documents; cited from earlier work. This is another data set of the same source.
The nature of series [3]: in vivo. The series is classed as in vivo. The following applies: mouse, in vivo, po. Here is the method: (§1) The neurotoxic properties were assessed on male mice by the so-called "Rota-rod" test carried out thirty minutes after the oral administration of the substances to be studied. The animals (divided into groups each containing ten male mice per dose and per product) are installed on the rod and their fall is observed over the next two minutes.
(§2) The results obtained are expressed in the form of the 50% neurotoxic dose (TD50) per os, which is the dose causing 50% of the animals to fall.
(§3) Protection index: TD50 per os/ED50 per os
(§4) *dose determined per os on groups each containing ten male mice.

The nature of series [4]: in vivo. The following applies: mouse, in vivo, po; for selectivity ratio: LD50 per os/ED50 per os. The protocol: (§5) The toxicity of the products to be studied was investigated by the oral administration, using an esophageal tube, of each of the said products to male mice with a body weight of 18 to 22 g, divided into groups each containing 10 to 20 animals. The mortality was recorded over a 14-day period.
(§6) The results obtained, which are expressed in the form of LD50 in mg/kg, are collated in Table II below.

The next series concerns convulsive seizures. Nature of the series: Anticonvulsant properties in mice, overall statement (PTZ and MCE). The class given is in vivo, male mice. The following applies: for most effective products according to the invention: in view of protection and therapeutic indices, Table IV. The protocol:
The anticonvulsant properties were investigated on male mice, thirty minutes after the oral administration of the substances to be studied, by the induction of convulsive seizures.
These seizures are caused either by the intraperitoneal injection of pentetrazole (125 mg/kg) or by electrical stimulation of the cornea (supra-maximal electroshock, abbreviated to MCE).
The results, expressed in the form of the 50% effective dose (ED50) per os (dose protecting 50% of the animals), are collated in Table III below.

The test system of series [5] is convulsions induced by supramaximal electroshock (MCE). The experiment in a line: Anticonvulsant properties: convulsions induced by supramaximal electroshock (MCE), oral, mice. The class given is in vivo. The following applies: per os, male mice, 30 min after administration; for ED50: Mus musculus, po, 0.5 h, read-out: ED50 in respect of convulsions induced by MCE; for ED50 in respect of convulsions induced by MCE: 30 min.
Text: MCE: supramaximal electroshock;
*: ED50 in mg/kg, determined per os on groups each containing ten

The test system of series [6] is convulsions induced by pentetrazole (PTZ). Nature of the series: Anticonvulsant properties: convulsions induced by pentetrazole (PTZ), oral, mice. The class given is in vivo. The following applies: per os, male mice, 30 min after administration, pentetrazole 125 mg/kg i.p.; for ED50: Mus musculus, po, 0.5 h, read-out: ED50 in respect of convulsions induced by PTZ; for ED50 in respect of convulsions induced by PTZ: 30 min.

Series [7] relates to male mice. The experiment in a line: in vivo. The protocol: as §5, §6
Series [8] concerns male mice. The experiment in a line: in vivo. The series is classed as in vivo. Here is the method:
as §1, §2, §3, §4

The mark [9] stands for this setting: LD50, Table II, male mice, 14 days.
[10] abbreviates: LD50, Table IV, per os, male mice.
Setting [11] is: TD50 per os/ED50 per os, PTZ, read-out: Protection index PTZ.
Where [12] appears, read: Rota-rod, per os, male mice, 30 min after administration, read-out: TD50.
The mark [13] stands for this setting: versus sodium valproate and trimethadione.

Entries after “also recorded” stand apart in the source; their conditions may differ. Read-outs that look alike come from different tables or passages of the source.

In the case of `Cc1ncsc1C(C)O` (centres unmarked) [1-(4-methylthiazol-5-yl)ethanol], the “anticonvulsant properties (prior art)” value in [1] is “possesses anticonvulsant properties; also recorded: is an anticonvulsant”. Besides, in series [2], the “antihypoxic properties (prior art)” value was “devoid of beneficial antihypoxic effects”.

Turning to `Cc1ncsc1C(C)(C)O` [2-(4-methylthiazol-5-yl)propan-2-ol], the “anticonvulsant properties (prior art)” value in series [1] was “has anticonvulsant and antihypoxic properties”. Also, in series [2], the “antihypoxic properties (prior art)” value is “has anticonvulsant and antihypoxic properties”.

As to `Cc1ncsc1CO` [5-hydroxymethyl-4-methylthiazole], in [1], the “anticonvulsant properties (prior art)” value was “devoid of anticonvulsant effects”.

As for `CO/N=C(\C)c1scnc1C` [Ex. 3, 5-(1-methoxyiminoethyl)-4-methylthiazole], the selectivity ratio stood at 3 in the series “in vivo [3]” (Protection index MCE); 3.2 in “in vivo [3]” (Protection index PTZ); 5.9 in “in vivo [4]” (Therapeutic index MCE, MCE); 6.3 in the series “in vivo [4]” (Therapeutic index PTZ, PTZ). Besides, in the series “in vivo [3]” (TD50), the TD50 at 0.5 h is 290 mg/kg. In addition, the LD50 at 336 h in “in vivo [4]” (setting [9]) and in the series “in vivo [4]” (setting [10]) was 570 mg/kg each time. In the series on convulsive seizures (pure E isomer versus mixture E/Z=91/9), the “activity as an anticonvulsant” value is on record as “less active than the corresponding mixture E/Z=91/9”. Also, the ED50 in series [5] worked out at 97 mg/kg; in [6], 91 mg/kg.

Turning to `CC(=NOCc1ccccc1)c1scnc1C` [Ex. 11, 5-(1-benzyloxyiminoethyl)-4-methylthiazole], the selectivity ratio in the series “in vivo [3]” (TD50 per os/ED50 per os, MCE, read-out: Protection index MCE) is 12.8; in “in vivo [3]” (setting [11]) it was 21.7; in the series “in vivo [4]” (Therapeutic index MCE, MCE), above 12.8. Also, the TD50 at 0.5 h in “in vivo [3]” (setting [12]) was 1000 mg/kg. For the same compound, the “Therapeutic index PTZ” value in the series on male mice [7] (LD50 per os/ED50 per os) is above 21.7. For the same compound, the 50% lethal dose (LD50) with male mice [7] (Table IV, per os, male mice, 20160 min) is above 1000 mg/kg. Moreover, in the series with convulsive seizures, the “most effective products according to the invention” value is recorded as “most effective”. In addition, in [5], the “ED50 in respect of convulsions induced by MCE” value is recorded as 78 mg/kg. Moreover, the “ED50 in respect of convulsions induced by PTZ” value in series [6] was 46 mg/kg.

With `CC(=NOCc1ccccc1)c1scnc1C` [Ex. 12], in the series with male mice [8] (mouse, in vivo), the “protection indices compared with the reference products” value is reported as “better than those of the reference products”. The selectivity ratio in “in vivo [3]” (Protection index MCE) is 8.6; in the series “in vivo [3]” (Protection index PTZ), 13.5. Further, the TD50 at 0.5 h in the series “in vivo [3]” (TD50) was found to be 1350 mg/kg. In addition, in the series with male mice [7] (LD50 per os/ED50 per os, MCE), the “Therapeutic index MCE” value is above 6.4. Besides, the “Therapeutic index PTZ” value in the series with male mice [7] (LD50 per os/ED50 per os) is given as above 10.0. Also, in the series on male mice [7] (mouse, in vivo), the “therapeutic indices compared with the reference products” value is recorded as “better than those of the reference products”. The compound also came in with a median lethal dose (LD50) at 336 h in the series “in vivo [4]” (LD50) above 1000 mg/kg. Besides, in the series with convulsive seizures, the “most effective products according to the invention” value is recorded as “most effective”. Also, the “ED50 in respect of convulsions induced by MCE” value in [5] is given as 157 mg/kg. Besides, the “ED50 in respect of convulsions induced by PTZ” value in series [6] was 100 mg/kg.

With `CC(=NOCc1cccc(C(F)(F)F)c1)c1scnc1C` [Ex. 16], in the series on male mice [8] (setting [13]), the “protection indices compared with the reference products” value is recorded as “better than those of the reference products”. Besides, the selectivity ratio in “in vivo [3]” (setting [11]) was 15.6; in the series “in vivo [4]” (Therapeutic index PTZ, PTZ), above 10.4. The TD50 at 0.5 h in “in vivo [3]” (setting [12]) is 1500 mg/kg. Also, in the series on male mice [7] (setting [13]), the “therapeutic indices compared with the reference products” value is “better than those of the reference products”. Besides, the LD50 at 336 h in the series “in vivo [4]” (setting [9]) and in “in vivo [4]” (setting [10]) was above 1000 mg/kg throughout. The 50% effective dose (ED50) is above 200 mg/kg in series [5] and 96 mg/kg in [6].

In general, LD50 refers to the dose expected to kill half of the subjects tested. Broadly, the ED50 is the dose at which the effect has come halfway, by size or by number of responders.
